Experiments:
[1] = system: maximal electroshock seizure (MES) in mice; settings: mouse, in vivo; cited from earlier work
[2] = system: pentylenetetrazol (Metrazole) seizure threshold in mice; settings: cited from earlier work; for amounts of PTZ required to produce the endpoints (in words): mouse, in vivo
[3] = Neurotoxicity, rotorod ataxia test, mice, i.p.; set-up: species or system mouse (male Carworth Farms #1); settings: mouse, in vivo, ip, TD50
Procedure: Neurotoxicity is determined by the rotorod ataxia test in mice and by the positional sense test and gait and stance test in the rat. The following Table 2 presents the results of these anticonvulsant tests with respect to several (+) and (-) AAP enantiomeric compounds derived from optical resolution of racemic AAPs of the present invention. This Table 2 identifies the specific compounds tested by their chemical name and provides the test model, the route of administration, the animal species used, and the anticonvulsant activity and toxicity in terms of ED50 and TD50 values, (the median effective and toxic dose respectively), when intraperitoneally administered to mice, and when orally administered to rats. In mice, i.p.: All compounds are emulsified in 0.5% methylcellulose. The solvent has been tested for anticonvulsant and toxic effects and found to introduce no significant bias into the testing of anticonvulsant activity. The compounds are administered intraperitoneally in a volume of 0.01 ml/gm to male Carworth Farms #1 mice weighing about 20 gm. All compounds are tested at least at three dose levels (30, 100 and 300 mg/kg) at 30 minutes and 4 hours after their administration. Neurotoxicity is evaluated in mice by the rotorod ataxia test. The animal is placed on a wooden rod of 1 and 1/8 diameter rotating at 6 rpm. Normal mice can remain on a rod rotating at this speed indefinitely. […] Anticonvulsant Quantification in Mice i.p.: The ED50 values are determined in the MES, scMet and rotorod ataxia test. To determine the ED50 values, five logarithmically spaced doses of the test compound are administered to animals (male Carworth Farms #1 mice) in groups of eight, to cover 0-100% protection, and the dose required to protect 50% of the animals (ED50) together with its 95% confidence limits, is determined graphically.

[4] = system: maximal electroshock seizure (MES) in mice; assay: Maximal electroshock seizure (MES) test, mice, i.p.; format: in vivo, mouse (male Carworth Farms #1); settings: for P.I. (protective index, TD50/ED50): MES; for ED50: Mus musculus, ip, MES test, read-out: ED50
From the text: The (+) AAP enantiomers obtained by optical resolution of racemic AAPs and the resulting highly orally effective anticonvulsant compositions of this invention are useful in the treatment of convulsive disorders. […] A series of (+) AAP enantiomers and (-) AAP enantiomers of this invention has been evaluated for anticonvulsant activity by the intraperitoneal (i.p.) and by the oral (p.o.) route using two standard seizure models in the mouse and in the rat, the maximal electroshock seizure (MES) test and the subcutaneous pentylenetetrazol (Metrazole) seizure threshold (scMet) test. […] The following Table 2 presents the results of these anticonvulsant tests with respect to several (+) and (-) AAP enantiomeric compounds derived from optical resolution of racemic AAPs of the present invention. This Table 2 identifies the specific compounds tested by their chemical name and provides the test model, the route of administration, the animal species used, and the anticonvulsant activity and toxicity in terms of ED50 and TD50 values, (the median effective and toxic dose respectively), when intraperitoneally administered to mice, and when orally administered to rats. In mice, i.p.: All compounds are emulsified in 0.5% methylcellulose. The solvent has been tested for anticonvulsant and toxic effects and found to introduce no significant bias into the testing of anticonvulsant activity. The compounds are administered intraperitoneally in a volume of 0.01 ml/gm to male Carworth Farms #1 mice weighing about 20 gm. All compounds are tested at least at three dose levels (30, 100 and 300 mg/kg) at 30 minutes and 4 hours after their administration. The Maximal Electroshock Seizure Test (MES): Maximal electroshock seizures are elicited with a 60 Hz alternating current of 50 mA intensity in mice and about 150 mA intensity in rats (5-7 times that necessary to elicit minimal electroshock seizures), delivered for 0.2 sec via corneal electrodes. A drop of 0.9% saline is instilled in the eye prior to application of the electrodes in order to […]. Abolition of the hind limb tonic extension component of the seizure is defined as protection and results are expressed as number of animals protected/number of animals tested. The Subcutaneous Pentylenetetrazol (Metrazole) Seizure Threshold Test (scMet): A 0.5% solution of 85 mg/kg of pentylenetetrazol is administered subcutaneously in the posterior midline 30 minutes or 4 hours after drug administration to the animal. […] Anticonvulsant Quantification in Mice i.p.: The ED50 values are determined in the MES, scMet and rotorod ataxia test. To determine the ED50 values, five logarithmically spaced doses of the test compound are administered to animals (male Carworth Farms #1 mice) in groups of eight, to cover 0-100% protection, and the dose required to protect 50% of the animals (ED50) together with its 95% confidence limits, is determined graphically.

[5] = Neurological deficit, positional sense test and gait and stance test, rats, p.o.; set-up: species or system rat (Sprague-Dawley); settings: rat, in vivo, po
Procedure: Neurotoxicity is determined by the rotorod ataxia test in mice and by the positional sense test and gait and stance test in the rat. The following Table 2 presents the results of these anticonvulsant tests with respect to several (+) and (-) AAP enantiomeric compounds derived from optical resolution of racemic AAPs of the present invention. This Table 2 identifies the specific compounds tested by their chemical name and provides the test model, the route of administration, the animal species used, and the anticonvulsant activity and toxicity in terms of ED50 and TD50 values, (the median effective and toxic dose respectively), when intraperitoneally administered to mice, and when orally administered to rats. […] This species will be the subject of the complete anticonvulsant quantification test evaluation as described above, but after oral (gavage) administration of the candidate compound. […] Neurological deficit in rats is examined by the positional sense test and gait and stance test. […] Inability to do so rapidly indicates a neurologic deficit. In the gait and stance test, a neurologic deficit is indicated by a circular or a zigzag gait, ataxia, abnormal spread of the legs, abnormal body posture, tremor, hyperactivity, lack of exploratory behavior, somnolence, stupor, or catalepsy.

[6] = system: maximal electroshock seizure (MES) in rats; assay: Maximal electroshock seizure (MES) test, rats, p.o.; format: in vivo, rat (Sprague-Dawley); settings: p.o.; for % protection (lowest and highest) during 4 hour period: 30 mg/kg, 5 time points 0.25-4 hours, 4 rats per point
From the text: The (+) AAP enantiomers obtained by optical resolution of racemic AAPs and the resulting highly orally effective anticonvulsant compositions of this invention are useful in the treatment of convulsive disorders. […] A series of (+) AAP enantiomers and (-) AAP enantiomers of this invention has been evaluated for anticonvulsant activity by the intraperitoneal (i.p.) and by the oral (p.o.) route using two standard seizure models in the mouse and in the rat, the maximal electroshock seizure (MES) test and the subcutaneous pentylenetetrazol (Metrazole) seizure threshold (scMet) test. […] The following Table 2 presents the results of these anticonvulsant tests with respect to several (+) and (-) AAP enantiomeric compounds derived from optical resolution of racemic AAPs of the present invention. This Table 2 identifies the specific compounds tested by their chemical name and provides the test model, the route of administration, the animal species used, and the anticonvulsant activity and toxicity in terms of ED50 and TD50 values, (the median effective and toxic dose respectively), when intraperitoneally administered to mice, and when orally administered to rats. The Maximal Electroshock Seizure Test (MES): Maximal electroshock seizures are elicited with a 60 Hz alternating current of 50 mA intensity in mice and about 150 mA intensity in rats (5-7 times that necessary to elicit minimal electroshock seizures), delivered for 0.2 sec via corneal electrodes. A drop of 0.9% saline is instilled in the eye prior to application of the electrodes in order to […]. Abolition of the hind limb tonic extension component of the seizure is defined as protection and results are expressed as number of animals protected/number of animals tested. The Subcutaneous Pentylenetetrazol (Metrazole) Seizure Threshold Test (scMet): A 0.5% solution of 85 mg/kg of pentylenetetrazol is administered subcutaneously in the posterior midline 30 minutes or 4 hours after drug administration to the animal. […] This species will be the subject of the complete anticonvulsant quantification test evaluation as described above, but after oral (gavage) administration of the candidate compound.

Cc1cccc(C)c1OCC(C)N (centres unmarked) [Mexiletine]
MES test activity (in words) [1]: potent in the MES test
seizure threshold (in words) ([2]; doses slightly above the MES ED50 in mice): lowers seizure threshold at doses slightly above the MES ED50 in mice

CCC1(c2ccccc2)C(=O)NC(=O)NC1=O [phenobarbital]
amounts of PTZ required to produce the endpoints (in words) [2]: increase the amounts of PTZ required to produce the above endpoints

CC(Nc1ccc(Cl)c(Cl)c1)c1ccncc1 (single isomer, unassigned; (+)) [Compound 5, (+) N-(3,4-Dichlorophenyl)-1-(4-pyridyl)ethylamine]
TD50 [3]: > 500 mg/kg
P.I. (protective index, TD50/ED50) ([4]; listed as (3) (+) Enantiomer): > 6.6
ED50 [4]: 76.1 mg/kg
TD50 [5]: > 500 mg/kg
ED50 ([6]; Rattus norvegicus, po, MES test, read-out: ED50): 32.3 mg/kg
% protection (lowest and highest) during 4 hour period ([6]; rat, MES, listed as (3) (+) Enantiomer): 0-100%
P.I. (protective index, TD50/ED50) ([6]; rat, MES): > 15.5

CCC1(C)CC(=O)NC1=O (centres unmarked) [ethosuximide]
amounts of PTZ required to produce the endpoints (in words) [2]: increase the amounts of PTZ required to produce the above endpoints

CCC(Nc1ccc(Cl)c(Cl)c1)c1ccncc1 (single isomer, unassigned; (+)) [Compound 9, (+) N-(3,4-Dichlorophenyl)-1-(4-pyridyl)propylamine]
TD50 [3]: 279 mg/kg
P.I. (protective index, TD50/ED50) ([4]; listed as (5) (+) Enantiomer): 3.0
ED50 [4]: 91.9 mg/kg
% protection (lowest and highest) during 4 hour period ([6]; rat, MES, listed as (5) (+) Enantiomer): 0-75%

CCC(Nc1ccc(Cl)cc1)c1ccncc1 (single isomer, unassigned; (+)) [Compound 7, (+) N-(4-Chlorophenyl)-1-(4-pyridyl)propylamine]
TD50 [3]: 322 mg/kg
P.I. (protective index, TD50/ED50) ([4]; listed as (4) (+) Enantiomer): 2.9
ED50 [4]: 109 mg/kg
% protection (lowest and highest) during 4 hour period ([6]; rat, MES, listed as (4) (+) Enantiomer): 0-75%

CCCC(CCC)C(=O)O [valproic acid]
amounts of PTZ required to produce the endpoints (in words) [2]: increase the amounts of PTZ required to produce the above endpoints

From US6083964A, “Optical resolution of racemic aminoalkylpyridine anticonvulsants and (+) aminoalkylpyridine enantiomers as highly potent orally effective anticonvulsant drugs and excitatory amino acid antagonists” (K and K Biosciences, Inc., priority 1999, dated 2000)
